Source: patent US5814630A, “Quinazoline compounds” (Zeneca Limited, priority 1996, dated 1998)
pIC50: −log10 of the molar value. Blank lines part the entries; values can stand above or below the molecule they belong to.

Experiments:
[1] = test system: EGF receptor tyrosine kinase; settings: Fry et al., Science, 1994, 265, 1093; cited from earlier work
[2] = target: T1, EGF receptor tyrosine kinase (Homo sapiens, UniProt P00533); assay: in vitro inhibition of the enzyme EGF receptor tyrosine kinase (Test (a)); type: biochemical; settings: receptor tyrosine kinase from A-431 cells
T1 construct: Receptor tyrosine kinase was obtained in partially purified form from A-431 cells; endogenous in cells; host or cells: A-431 cells (human vulval carcinoma), Triton X-100 solubilised membrane fraction
T1 sequence (P00533 25-1210): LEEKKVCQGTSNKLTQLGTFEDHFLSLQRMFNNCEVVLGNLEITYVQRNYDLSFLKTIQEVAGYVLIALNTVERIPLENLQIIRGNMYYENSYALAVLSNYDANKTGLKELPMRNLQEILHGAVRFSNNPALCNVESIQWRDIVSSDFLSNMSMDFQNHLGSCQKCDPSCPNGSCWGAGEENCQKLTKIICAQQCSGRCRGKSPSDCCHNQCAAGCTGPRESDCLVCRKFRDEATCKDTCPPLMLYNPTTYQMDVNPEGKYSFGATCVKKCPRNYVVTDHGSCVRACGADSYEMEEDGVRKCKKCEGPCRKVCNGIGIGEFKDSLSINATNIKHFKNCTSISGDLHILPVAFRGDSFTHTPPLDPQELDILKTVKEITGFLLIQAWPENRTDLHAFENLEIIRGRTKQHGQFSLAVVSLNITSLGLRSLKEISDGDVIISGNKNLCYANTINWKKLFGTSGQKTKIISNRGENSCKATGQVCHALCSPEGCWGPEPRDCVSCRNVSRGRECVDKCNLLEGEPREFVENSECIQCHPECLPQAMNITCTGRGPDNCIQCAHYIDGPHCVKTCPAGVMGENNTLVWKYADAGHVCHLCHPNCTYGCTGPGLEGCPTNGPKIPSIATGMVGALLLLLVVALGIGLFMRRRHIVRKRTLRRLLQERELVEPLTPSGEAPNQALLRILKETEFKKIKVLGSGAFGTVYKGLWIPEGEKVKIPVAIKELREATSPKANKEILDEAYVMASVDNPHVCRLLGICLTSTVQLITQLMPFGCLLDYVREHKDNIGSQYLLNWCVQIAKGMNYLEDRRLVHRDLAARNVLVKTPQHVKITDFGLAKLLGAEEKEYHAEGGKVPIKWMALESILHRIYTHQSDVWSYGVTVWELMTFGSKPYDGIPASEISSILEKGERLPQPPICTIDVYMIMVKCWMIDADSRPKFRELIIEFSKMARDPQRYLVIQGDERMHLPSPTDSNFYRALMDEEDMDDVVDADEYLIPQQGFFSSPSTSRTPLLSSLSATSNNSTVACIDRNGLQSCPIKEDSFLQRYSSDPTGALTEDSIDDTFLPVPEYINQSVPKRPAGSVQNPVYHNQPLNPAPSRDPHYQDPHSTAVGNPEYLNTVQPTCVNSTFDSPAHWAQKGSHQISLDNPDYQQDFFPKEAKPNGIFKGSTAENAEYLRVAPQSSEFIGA
T1 sequence (P01133 971-1023 partner limits assumed): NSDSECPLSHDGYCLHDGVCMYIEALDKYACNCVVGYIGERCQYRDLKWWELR
Procedure: (a) An in vitro assay which determines the ability of a test compound to inhibit the enzyme EGF receptor tyrosine kinase. Receptor tyrosine kinase was obtained in partially purified form from A-431 cells (derived from human vulval carcinoma) by the procedures described below which are related to those described by Carpenter et al., J. Biol. Chem., 1979, 254, 4884, Cohen et al., J. Biol. Chem., 1982, 257, 1523 and by Braun et al., J. Biol. Chem., 1984, 259, 2051.
A-431 cells were grown to confluence using Dulbecco's modified Eagle's medium DMEM) containing 5% fetal calf serum (FCS). The obtained cells were homogenised in a hypotonic borate/EDTA buffer at pH 10.1. The homogenate was centrifuged at 400 g for 10 minutes at 0°-4° C. The supernatant was centrifuged at 25,000 g for 30 minutes at 0°-4° C. […]
The test compound/EGF mixture solution (5 μl) was added to the test enzyme solution (10 μl) and the mixture was incubated at 0°-4° C. for 30 minutes. […] Radioactivity present in the filter paper was measured using a liquid scintillation counter (Sequence A). […]
Receptor tyrosine kinase inhibition was calculated as follows: [formula]
The extent of inhibition was then determined at a range of concentrations of test compound to give an IC50 value.

[3] = test system: human naso-pharyngeal cancer cell line KB; assay: in vitro inhibition of EGF-stimulated growth of human naso-pharyngeal cancer cell line KB (Test (b)); type: cell-based; settings: 72 h, EGF 10 ng/ml, 3 days, MTT, read-out: IC50 in Test (b), inhibition of EGF-stimulated growth of KB cells
Procedure: (b) An in vitro assay which determines the ability of a test compound to inhibit the EGF-stimulated growth of the human naso-pharyngeal cancer cell line KB.
KB cells were seeded into wells at a density of 1×10^4 -1.5×10^4 cells per well and grown for 24 hours in DMEM supplemented with 5% FCS (charcoal-stripped). Cell growth was determined after incubation for 3 days by the extent of metabolism of MTT tetrazolium dye to furnish a bluish colour. Cell growth was then determined in the presence of EGF (10 ng/ml) or in the presence of EGF (10 ng/ml) and a test compound at a range of concentrations. An IC50 value could then be calculated.

[4] = test system: human mammary carcinoma which expresses EGF receptor tyrosine kinase; settings: athymic nude mice; cited from earlier work
[5] = test system: another carcinoma which does not express EGF receptor tyrosine kinase; settings: cited from earlier work

SMILES: COc1cc2ncnc(Nc3cccc(Br)c3)c2cc1OC [4-(3-bromoanilino)-6,7-dimethoxyquinazoline]
- inhibition of EGF receptor tyrosine kinase (in words) [1]: highly potent inhibitor

- pIC50 [2]: 7.38
- pIC50 [3]: 6.92
SMILES: Fc1ccc(Nc2ncnc3cc(-c4csc(CN5CCOCC5)c4)ccc23)cc1Cl [Example 5, 4-(3-chloro-4-fluoroanilino)-7-(5-morpholinomethylthien-3-yl)quinazoline]

SMILES: O=CN/C=C/c1cc(O)ccc1O [erbstatin]
- attenuation of growth of a transplanted human mammary carcinoma [4]: specifically attenuates the growth
- effect on the growth of another carcinoma [5]: without effect
